# Measurements published in patent US20260274892A1, “MACROCYCLIC BROAD SPECTRUM ANTIBIOTICS” (RQx Pharmaceuticals, Inc., priority 2017, published 2026).
# Tests used:
# [1] = tested on: Methicillin Resistant Staphylococcus aureus strain USA 200; assay: Minimum inhibitory concentration (MIC), CLSI broth micro-dilution, S. aureus; assay type: cell-based; conditions: Staphylococcus aureus, MRSA / USA200; Table 6; MRSA USA 200; cation adjusted Mueller Hinton Broth + 0.002% Tween-80; 35° C., 22 hours
# Procedure: In vitro antimicrobial activity of each compound was determined by measuring minimal inhibitor concentrations (MICs) using the broth micro-dilution technique as approved by the Clinical and Laboratory Standards Institute (CLSI) (Methods for Dilution Antimicrobial Susceptibility Tests for Bacteria that Grow Aerobically; Approved Standard-Eighth Edition. CLSI document M07-A8. Wayne, PA: Clinical and Laboratroy Standards; 2009). Antibacterial activity was measure against two strains of bacteria: a Methicillin Resistant Staphylococcus aureus strain USA 200, (S. aureus) and Escherichia coli ATCC 25922 (E. coli), a clinically relevant Gram-negative strain. Cells were inoculated onto plates of Trypyticase Soy Agar or Luria Agar respectively and grown at 35° C. for 20 hours. Inocula suspensions were prepared by scraping cells into 1 mL of testing media (cation adjusted Mueller Hinton Broth supplemented with 0.002% v/v Tween-80) and diluting to a final OD600nm of 0.01.
# Test compounds were prepared in DMSO at a concentration of 10 mg/mL. In protocol 1, the compound stocks were diluted into testing media at a concentration of 64 µg/ml and serial 2-fold dilutions were made in the same media, in 96-well U bottom microtiter dishes, for a total of 10 compound concentrations. In protocol 2, the compound stocks were diluted into testing media at a concentration of 4 µg/mL and serial 2-fold dilutions were made in the same media, in 96-well U bottom microtiter dishes, for a total of 10 compound concentrations. In protocol 3, compound stocks were diluted into testing media at a concentration of 0.5 μg/mL, with serial 2-fold dilutions conducted as described above. In protocol 4, compound stocks were diluted into testing media at a concentration of […], with serial 2-fold dilutions conducted as described above. Inocula suspensions were added to the 2-fold serial dilutions of test compounds to a final density of GD OD600nm of 0.0005 and incubated at 35° C. for 22 hours.
# [2] = tested on: Escherichia coli ATCC 25922; assay: Minimum inhibitory concentration (MIC), CLSI broth micro-dilution, E. coli; assay type: cell-based; conditions: Escherichia coli
# How it was run: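 Colonies grown 20 h at 35° C on Trypticase Soy agar (MRSA) or Luria agar (E. coli) were suspended in cation-adjusted Mueller Hinton broth with 0.002% Tween-80. Suspensions were added at OD600 0.0005 to 10-point twofold compound dilutions, then incubated 22 h at 35° C.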
# [3] = ATCC25922, 22 h, Table 6, cation adjusted Mueller Hinton Broth + 0.002% Tween-80, 35° C.
# [4] = ATCC25922, 22 h, Table 7, cation adjusted Mueller Hinton Broth + 0.002% Tween-80, 35° C.
# [5] = ATCC25922, Table 6, cation adjusted Mueller Hinton Broth + 0.002% Tween-80, 35° C., 22 hours
# [6] = ATCC25922, Table 7, cation adjusted Mueller Hinton Broth + 0.002% Tween-80, 35° C., 22 hours
smiles,measurement,setting,value
"CCCCCc1ccc(-c2ccc(C(=O)N[C@@H](CCN)C(=O)N(C)[C@@H]3C(=O)N[C@@H](C)C(=O)N[C@H](C(=O)NCC#N)Cc4ccc(OCCN)c(c4)-c4cc3ccc4OCCN)c(C)n2)cc1 (racemic) [Compound 205, rac-(8S,11S,14S)-3,18-bis(2-aminoethoxy)-N-(cyanomethyl)-11-methyl-14-[methyl-[rac-(2S)-4-amino-2-[[2-methyl-6-(4-pentylphenyl)pyridine-3-carbonyl]amino]butanoyl]amino]-10,13-dioxo-9,12-diazatricyclo[13.3.1.12,6]icosa-1(18),2(20),3,5,15(19),16-hexaene-8-carboxamide]",MIC,[1],0.012 µM
same,MIC,[2]; [3],0.066 µM
"Cc1nc(-c2ccc(C(C)(C)C)cc2)nc(C)c1C(=O)N[C@@H](CCN)C(=O)N(C)[C@@H]1C(=O)N[C@@H](C)C(=O)N[C@H](C(=O)NCC#N)Cc2ccc(OCCN)c(c2)-c2cc1cc(OC[C@H](O)CN)c2O (racemic) [Compound 588, rac-(8S,11S,14S)-3-(2-aminoethoxy)-N-(cyanomethyl)-18-hydroxy-11-methyl-14-[methyl-[rac-(2S)-4-amino-2-[[2-(4-tert-butylphenyl)-4,6-dimethyl-pyrimidine-5-carbonyl]amino]butanoyl]amino]-10,13-dioxo-17-[rac-(2R)-3-amino-2-hydroxy-propoxy]-9,12-diazatricyclo[13.3.1.12,6]icosa-1(18),2(20),3,5,15(19),16-hexaene-8-carboxamide]",MIC,[2]; [4],0.094 µM
"CC[C@H](NC(=O)c1c(C)nc(-c2ccc(OC3CCCCC3)cc2)nc1C)C(=O)N[C@@H](CCN)C(=O)N(C)[C@@H]1C(=O)N[C@@H](C)C(=O)N[C@H](C(=O)NCC#N)Cc2ccc(OCCN)c(c2)-c2cc1ccc2OCCN [Compound 510, (8S,11S,14S)-14-[[(2S)-4-amino-2-[[(2S)-2-[[2-[4-(cyclohexoxy)phenyl]-4,6-dimethyl-pyrimidine-5-carbonyl]amino]butanoyl]amino]butanoyl]-methyl-amino]-3,18-bis(2-aminoethoxy)-N-(cyanomethyl)-11-methyl-10,13-dioxo-9,12-diazatricyclo[13.3.1.12,6]icosa-1(18),2(20),3,5,15(19),16-hexaene-8-carboxamide]",MIC,[2]; [5],1.5 µM
"COc1c(OCCN)cc2cc1-c1cc(ccc1OCCN)C[C@@H](C(=O)NCC#N)NC(=O)[C@H](C)NC(=O)[C@H]2N(C)C(=O)[C@H](CNS(N)(=O)=O)NC(=O)c1c(C)nc(-c2ccc(C(C)(C)C)cc2)nc1C (racemic) [Compound 585, rac-(8S,11S,14S)-3,17-bis(2-aminoethoxy)-N-(cyanomethyl)-18-methoxy-11-methyl-14-[methyl-[rac-(2S)-2-[[2-(4-tert-butylphenyl)-4,6-dimethyl-pyrimidine-5-carbonyl]amino]-3-(sulfamoylamino)propanoyl]amino]-10,13-dioxo-9,12-diazatricyclo[13.3.1.12,6]icosa-1(18),2(20),3,5,15(19),16-hexaene-8-carboxamide]",MIC,[2]; [6],0.38 µM
"CCCCc1ccc(-c2cc(C)c(C(=O)N[C@@H](CCN)C(=O)N(C)[C@@H]3C(=O)N[C@@H](C)C(=O)N[C@H](C(=O)NCC#N)Cc4ccc(OCCN)c(c4)-c4cc3ccc4OCCN)c(C)n2)nc1 (racemic) [Compound 365, rac-(8S,11S,14S)-3,18-bis(2-aminoethoxy)-N-(cyanomethyl)-11-methyl-14-[methyl-[rac-(2S)-4-amino-2-[[6-(5-butyl-2-pyridyl)-2,4-dimethyl-pyridine-3-carbonyl]amino]butanoyl]amino]-10,13-dioxo-9,12-diazatricyclo[13.3.1.12,6]icosa-1(18),2(20),3,5,15(19),16-hexaene-8-carboxamide]",MIC,[2]; [5],0.31 µM
"Cc1nc(-c2ccc(C(C)(C)C)cc2)nc(C)c1C(=O)N[C@@H](COC(C)(C)C)C(=O)N[C@@H](CCN)C(=O)N(C)[C@@H]1C(=O)N[C@@H](C)C(=O)N[C@H](C(=O)NCC#N)Cc2ccc(OCCN)c(c2)-c2cc1ccc2OCCN (racemic) [Compound 466, rac-(8S,11S,14S)-3,18-bis(2-aminoethoxy)-N-(cyanomethyl)-11-methyl-14-[methyl-[rac-(2S)-4-amino-2-[[rac-(2S)-3-tert-butoxy-2-[[2-(4-tert-butylphenyl)-4,6-dimethyl-pyrimidine-5-carbonyl]amino]propanoyl]amino]butanoyl]amino]-10,13-dioxo-9,12-diazatricyclo[13.3.1.12,6]icosa-1(18),2(20),3,5,15(19),16-hexaene-8-carboxamide]",MIC,[2]; [5],1.5 µM
"Cc1nc(-c2ccc(C(C)(C)C)cc2)nc(C)c1C(=O)N[C@@H](CCN)C(=O)N(C)[C@@H]1C(=O)N[C@@H](C)C(=O)N[C@H](C(=O)NCC#N)Cc2ccc(OC[C@@H](N)CO)c(c2)-c2cc1ccc2O (racemic) [Compound 613, rac-(8S,11S,14S)-N-(cyanomethyl)-18-hydroxy-11-methyl-14-[methyl-[rac-(2S)-4-amino-2-[[2-(4-tert-butylphenyl)-4,6-dimethyl-pyrimidine-5-carbonyl]amino]butanoyl]amino]-10,13-dioxo-3-[rac-(2S)-2-amino-3-hydroxy-propoxy]-9,12-diazatricyclo[13.3.1.12,6]icosa-1(18),2(20),3,5,15(19),16-hexaene-8-carboxamide]",MIC,[2]; [4],0.75 µM
"Cc1nc(-c2ccc(OC(C)C)cc2)nc(C)c1C(=O)N[C@@H](CCN)C(=O)N(C)[C@@H]1C(=O)N[C@@H](C)C(=O)N[C@H](C(=O)NCC#N)Cc2ccc(OC[C@H](O)CN)c(c2)-c2cc1ccc2OC[C@H](O)CN (racemic) [Compound 569, rac-(8S,11S,14S)-N-(cyanomethyl)-11-methyl-14-[methyl-[rac-(2S)-4-amino-2-[[2-(4-isopropoxyphenyl)-4,6-dimethyl-pyrimidine-5-carbonyl]amino]butanoyl]amino]-10,13-dioxo-3,18-bis[rac-(2R)-3-amino-2-hydroxy-propoxy]-9,12-diazatricyclo[13.3.1.12,6]icosa-1(18),2(20),3,5,15(19),16-hexaene-8-carboxamide]",MIC,[2]; [6],0.5 µM
"Cc1cc(-c2ccc(C(C)(C)C)cc2)cc(C)c1C(=O)N[C@@H](CCN)C(=O)N(C)[C@@H]1C(=O)N[C@@H](C)C(=O)N[C@H](C(=O)NCC#N)Cc2ccc(O)c(c2)-c2cc1ccc2OCCN (racemic) [Compound 541, rac-(8S,11S,14S)-18-(2-aminoethoxy)-N-(cyanomethyl)-3-hydroxy-11-methyl-14-[methyl-[rac-(2S)-4-amino-2-[[4-(4-tert-butylphenyl)-2,6-dimethyl-benzoyl]amino]butanoyl]amino]-10,13-dioxo-9,12-diazatricyclo[13.3.1.12,6]icosa-1(18),2(20),3,5,15(19),16-hexaene-8-carboxamide]",MIC,[2]; [3],0.75 µM
"Cc1nc(-c2ccc(C3CCCC3)cc2)nc(C)c1C(=O)N[C@@H](CCN)C(=O)N(C)[C@@H]1C(=O)N[C@@H](C)C(=O)N[C@H](C(=O)NCC#N)Cc2ccc(OCCN)c(c2)-c2cc1ccc2OCCN (racemic) [Compound 302, rac-(8S,11S,14S)-3,18-bis(2-aminoethoxy)-N-(cyanomethyl)-11-methyl-14-[methyl-[rac-(2S)-4-amino-2-[[2-(4-cyclopentylphenyl)-4,6-dimethyl-pyrimidine-5-carbonyl]amino]butanoyl]amino]-10,13-dioxo-9,12-diazatricyclo[13.3.1.12,6]icosa-1(18),2(20),3,5,15(19),16-hexaene-8-carboxamide]",MIC,[2]; [3],0.5 µM
"Cc1nc(-c2ccc(C(C)(C)C)cc2)nc(C)c1C(=O)N[C@@H](CCN)C(=O)N(C)[C@@H]1C(=O)N[C@@H](C)C(=O)N[C@H](C(=O)NCC#N)Cc2ccc(OC[C@H](O)CN)c(c2)-c2cc1ccc2O (racemic) [Compound 614, rac-(8S,11S,14S)-N-(cyanomethyl)-18-hydroxy-11-methyl-14-[methyl-[rac-(2S)-4-amino-2-[[2-(4-tert-butylphenyl)-4,6-dimethyl-pyrimidine-5-carbonyl]amino]butanoyl]amino]-10,13-dioxo-3-[rac-(2R)-3-amino-2-hydroxy-propoxy]-9,12-diazatricyclo[13.3.1.12,6]icosa-1(18),2(20),3,5,15(19),16-hexaene-8-carboxamide]",MIC,[2]; [6],0.19 µM
